Data: article PMC9798632, “Tailor-made alkaliphilic and thermostable fungal laccases for industrial wood processing” (Biotechnology for Biofuels and Bioproducts, 2022)

How the values were obtained:
Assay in all cases: spectrophotometric oxidation at […] nm, hyperbolic fit
Format in all cases: biochemical
[1] = target: T1, RY2 laccase (parent of Li9, Li10, Li11, C-LeB, Mol2, Mol3) (basidiomycete PM1, UniProt Q12571, N284V/F413N/F417I/F475P/A479L/F481M, form not given); conditions: 100 mM Tris-HCl pH 8, room temperature
T1 construct: one polypeptide; engineered from 7D5 (PDB 6H5Y, used as model template), which came from DNA shuffling of evolved PM1L and P. cinnabarinus laccases; RY2 residues: D263 (from N263), P454, S207, S291, V413, D457, A461, I468; evolved alpha-factor leader a9H2 as signal peptide; host S. cerevisiae BJ5465, purified by HPLC

[2] = target: T2, RY2 laccase (parent of Li9, Li10, Li11, C-LeB, Mol2, Mol3) (basidiomycete PM1, UniProt Q12571, N284V/F413N/F417I/F475P/F481M, form not given); conditions: 100 mM Tris-HCl pH 8, room temperature
T2 construct: one polypeptide; engineered from 7D5 (PDB 6H5Y, used as model template), which came from DNA shuffling of evolved PM1L and P. cinnabarinus laccases; RY2 residues: D263 (from N263), P454, S207, S291, V413, D457, A461, I468; evolved alpha-factor leader a9H2 as signal peptide; host S. cerevisiae BJ5465, purified by HPLC

[3] = target: T3, RY2 laccase (parent of Li9, Li10, Li11, C-LeB, Mol2, Mol3) (basidiomycete PM1, UniProt Q12571, N284D/F413N/F417I/F475P/F481M, form not given); conditions: 100 mM Tris-HCl pH 8, room temperature
T3 construct: one polypeptide; engineered from 7D5 (PDB 6H5Y, used as model template), which came from DNA shuffling of evolved PM1L and P. cinnabarinus laccases; RY2 residues: D263 (from N263), P454, S207, S291, V413, D457, A461, I468; evolved alpha-factor leader a9H2 as signal peptide; host S. cerevisiae BJ5465, purified by HPLC

[4] = target: T4, RY2 laccase (parent of Li9, Li10, Li11, C-LeB, Mol2, Mol3) (basidiomycete PM1, UniProt Q12571, N284V/F413N/F417I/V445T/S450T/D462N/F475P/A479L/F481M, form not given); conditions: 100 mM Tris-HCl pH 8, room temperature
T4 construct: one polypeptide; engineered from 7D5 (PDB 6H5Y, used as model template), which came from DNA shuffling of evolved PM1L and P. cinnabarinus laccases; RY2 residues: D263 (from N263), P454, S207, S291, V413, D457, A461, I468; evolved alpha-factor leader a9H2 as signal peptide; host S. cerevisiae BJ5465, purified by HPLC

[5] = target: T5, RY2 laccase (parent of Li9, Li10, Li11, C-LeB, Mol2, Mol3) (basidiomycete PM1, UniProt Q12571, N284D/F475P, form not given); conditions: pH 5, room temperature
T5 construct: one polypeptide; engineered from 7D5 (PDB 6H5Y, used as model template), which came from DNA shuffling of evolved PM1L and P. cinnabarinus laccases; RY2 residues: D263 (from N263), P454, S207, S291, V413, D457, A461, I468; evolved alpha-factor leader a9H2 as signal peptide; host S. cerevisiae BJ5465, purified by HPLC
T5 sequence (Q12571 entry or part of it N284D/F475P, form open): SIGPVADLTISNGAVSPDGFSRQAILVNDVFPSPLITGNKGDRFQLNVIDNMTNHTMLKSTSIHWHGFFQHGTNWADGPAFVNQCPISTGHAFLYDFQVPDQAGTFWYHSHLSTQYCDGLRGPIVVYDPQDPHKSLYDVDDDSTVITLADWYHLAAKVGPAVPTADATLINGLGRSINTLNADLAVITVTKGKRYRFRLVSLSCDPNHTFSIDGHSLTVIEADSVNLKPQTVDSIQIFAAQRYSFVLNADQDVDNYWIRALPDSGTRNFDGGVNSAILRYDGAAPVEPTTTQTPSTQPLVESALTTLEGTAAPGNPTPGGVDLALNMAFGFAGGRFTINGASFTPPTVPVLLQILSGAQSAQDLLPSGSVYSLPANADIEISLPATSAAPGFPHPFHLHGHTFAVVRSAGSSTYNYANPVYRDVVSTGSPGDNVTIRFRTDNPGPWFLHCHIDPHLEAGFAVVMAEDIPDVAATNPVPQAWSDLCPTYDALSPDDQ

T1 sequence (Q12571 entry or part of it N284V/F413N/F417I/F475P/A479L/F481M, form open): as the sequence (Q12571 entry or part of it N284D/F475P, form open) above, with D263V, F392N, F396I, A458L, F460M counted along it
T2 sequence (Q12571 entry or part of it N284V/F413N/F417I/F475P/F481M, form open): as the sequence (Q12571 entry or part of it N284D/F475P, form open) above, with D263V, F392N, F396I, F460M counted along it
T4 sequence (Q12571 entry or part of it N284V/F413N/F417I/V445T/S450T/D462N/F475P/A479L/F481M, form open): as the sequence (Q12571 entry or part of it N284D/F475P, form open) above, with D263V, F392N, F396I, V424T, S429T, D441N, A458L, F460M counted along it
T3 sequence (Q12571 entry or part of it N284D/F413N/F417I/F475P/F481M, form open): as the sequence (Q12571 entry or part of it N284D/F475P, form open) above, with F392N, F396I, F460M counted along it

## COc1cccc(OC)c1O [2,6-dimethoxyphenol]
[1]
  Km: 1700 ± 100 µM
[2]
  Km: 1500 ± 100 µM
[3]
  Km: 20000 ± 2400 µM
[4]
  Km: 1700 ± 200 µM
[5]
  Km: 260 ± 40 µM
